Source: patent US10640507B2, “PBD antibacterial agents” (KING'S COLLEGE LONDON, priority 2015, dated 2020)
Converted amounts (≈) assume the structure as drawn.

How the values were obtained:
Klebsiella KP 342 = assay: General MIC protocol, Gram negative; format: cell-based; conditions: Klebsiella, KP342
Description: General Minimum Inhibitory Concentration (MIC) Protocol
1. Grow up cultures of bacterial strains to be tested overnight.
2. Dilute down overnight cultures to concentration of 1×10^6 bacteria/ml (OD0.01) in Tryptic soy broth (TSB).
3. Add 100 μl of TSB media to column 2-column 12 in 96 well plate (keeping column 1 clear).
4. Make up compound to a concentration of 64 μg/ml in water (or alternatively to twice the chosen maximum concentration to be tested).
5. Add 100 μl of antibiotic solution to the 1st and 2nd columns.
6. Using a multichannel pipette take 100 μl from the 2nd column wells and pipette into 3rd column wells and repeat down the 96 well plate (remembering to include controls i.e. uninfected media and media with no antibiotic).
7. To each well (except uninfected control row H) add 100 μl of bacterially infected media at a concentration of 1×10^6/ml.
8. This dilutes down the concentration of the antibiotic by half (top dose is therefore 32 μg/ml in column 1) and also gives you a starting bacterial concentration of 5×10^5/ml.
9. Wrap plate with parafilm to prevent evaporation.
10. Leave at desired temperature (37° C. unless specified elsewhere) for 20 hours.
11. Next day check plates for growth and measure optical density (i.e. absorbance) at a wavelength of 600 nm (OD600).
An example of such a plate is shown in FIG. 1 where column A represents wells that receive the top dose 100 μl; column B represents wells that receive the top dose 100 μl+100 μl TSB; and column C represents wells that receive 100 μl TSB. Row H which is marked by a box labelled D represents a blank where the cells receive no bacteria.
The minimum inhibitory concentration (MIC) was measured using the general MIC protocol given above.

K. pneumonia - M6 = assay: Time kill kinetics; format: cell-based; conditions: drug at 4×MIC
Description: 1. Grow bacteria overnight.
2. Subculture into an autoclaved conical flask containing 10 ml of TSB to an OD of 0.01 (˜1×10^7 Cfu/ml for KP-M6).
4. Take aliquots (100 μl) at timepoints (0, 1, 2, 4, 6, 24 hours) and carry out a serial dilution in PBS (to remove drug and to dilute bacteria to countable numbers).
5. Use the serial dilution to perform a Miles Misra—i.e. Add 3×10 μl spots of each dilution onto an agar plate. Incubate overnight and count colonies on spots in the morning.
6. Control: Subculture bacteria alongside samples but with no antibiotic added. Take aliquots from this at every time point (0, 1, 2, 4, 6, 24 hours) and perform Miles Misra on these too (as detailed in points 4 and 5 above).
7. After the first experiment, if the counts seen on Miles-Misra were zero, total viable counts were determined by spreading 200 μl in a streak down the centre of a TSB agar plate, waiting for the liquid to be absorbed and then spreading over the plate and checking for growth inhibition at the sight of the original streak.
8. The compound is considered bactericidal if the inoculum was reduced >3 log10 CFU/ml and bacteriostatic if inoculum was reduced by 0-3 log10 CFU/ml.
Three measurements were taken for each compound at each time point. These measurements were averaged and the standard deviation was also calculated.

In the case of COc1cc2c(cc1OCCCC(=O)Nc1cc(C(=O)Nc3ccc4oc(C(=O)N5CCSCC5)cc4c3)n(C)c1)N=C[C@@H]1CCCN1C2=O [PP-A148, (S)-4-(4-((7-methoxy-5-oxo-2,3,5,11a-tetrahydro-1H-benzo-[e]pyrrolo[1,2-a][1,4]diazepin-8-yl)oxy)butanamido)-1-methyl-N-(2-(thiomorpholine-4-carbonyl)benzofuran-5-yl)-1H-pyrrole-2-carboxamide], the MIC (Klebsiella KP 342) was 4 to 8 µg/mL (≈ 5.72 to 11.4 µM).
For COc1cc2c(cc1OCCCC(=O)Nc1cc(C(=O)Nc3ccc4sc(C(=O)N(C)C)cc4c3)n(C)c1)N=C[C@@H]1CCCN1C2=O [KMR-14-33, (S)—N-(2-(dimethylcarbamoyl)benzo[b]thiophen-5-yl)-4-(4-((7-methoxy-5-oxo-2,3,5,11a-tetrahydro-1H-benzo[e]pyrrolo[1,2-a][1,4]-diazepin-8-yl)oxy)butanamido)-1-methyl-1H-pyrrole-2-carboxamide], the “Average (Log CFU/ml)” value (K. pneumonia - M6; time-point 1 hours) was 2667 CFU/ml, the “n = 1 (Log CFU/ml)” value (K. pneumonia - M6; time-point 1 hours) was 3000 CFU/ml and the “n = 2 (Log CFU/ml)” value (K. pneumonia - M6; time-point 1 hours) was 3000 CFU/ml. The “n = 3 (Log CFU/ml)” value (K. pneumonia - M6; time-point 1 hours) was 2000 CFU/ml, the “Average (Log CFU/ml)” value (K. pneumonia - M6; time-point 2 hours) was 0 CFU/ml and the “n = 2 (Log CFU/ml)” value (K. pneumonia - M6; time-point 2 hours) was 0 CFU/ml. For the same molecule, the “n = 3 (Log CFU/ml)” value (K. pneumonia - M6; time-point 2 hours) was 0 CFU/ml, the viable count (K. pneumonia - M6; time-point 2 hours) was 0 CFU/mL and the “Average (Log CFU/ml)” value (K. pneumonia - M6; time-point 4 hours) was 0 CFU/ml. For the same molecule, the “n = 2 (Log CFU/ml)” value (K. pneumonia - M6; time-point 4 hours) was 0 CFU/ml, the “n = 3 (Log CFU/ml)” value (K. pneumonia - M6; time-point 4 hours) was 0 CFU/ml and the viable count (K. pneumonia - M6; time-point 4 hours) was 0 CFU/mL. For the same molecule, the “Average (Log CFU/ml)” value (K. pneumonia - M6; time-point 6 hours) was 0 CFU/ml, the “n = 2 (Log CFU/ml)” value (K. pneumonia - M6; time-point 6 hours) was 0 CFU/ml and the “n = 3 (Log CFU/ml)” value (K. pneumonia - M6; time-point 6 hours) was 0 CFU/ml. For the same molecule, the viable count (K. pneumonia - M6; time-point 6 hours) was 0 CFU/mL, the “Average (Log CFU/ml)” value (K. pneumonia - M6; time-point 24 hours) was 0 CFU/ml and the “n = 2 (Log CFU/ml)” value (K. pneumonia - M6; time-point 24 hours) was 0 CFU/ml. For the same molecule, the “n = 3 (Log CFU/ml)” value (K. pneumonia - M6; time-point 24 hours) was 0 CFU/ml and the viable count (K. pneumonia - M6; time-point 24 hours) was 0 CFU/mL.
